Test systems include Enterococcus faecalis; Escherichia coli W3110; Staphylococcus aureus; Escherichia coli D31; Escherichia coli O157:H7; Bacillus megaterium Bm11; Candida tropicalis; Mammaliicoccus lentus; Micrococcus luteus; Serratia rubidaea X01.
Holding throughout (experiment): ≥ marks a high value that may be exact or a test limit, other limits are often not marked, values filed in µg/mL are converted to µM
Assay [1] relates to Pseudomonas aeruginosa PAK.
The subject of assay [2] is Streptococcus mutans UA159.
The subject of assay [3] is Streptococcus sanguinis NY101.
Assay [4] concerns Streptococcus sobrinus ATCC 33478.
The test system of assay [5] is Pseudomonas aeruginosa MR3007.
For assay [6], the system named is Staphylococcus aureus 930918-3.
The test system of assay [7] is Klebsiella pneumoniae K6 ATCC 700603.
For assay [8], the system named is Salmonella enterica subsp. enterica serovar Typhimurium ATCC 700408.
The test system of assay [9] is Staphylococcus aureus 1056.
In assay [10] the test system is Bacillus subtilis DSM 402.
Assay [11] has as its system Escherichia coli DSM 30083.
The subject of assay [12] is Phytophthora nicotianae PG344.
Assay [13] concerns Pseudomonas syringae pv. tabaci.
In assay [14] the test system is Yersinia pseudotuberculosis YPIII.
For assay [15], the system named is Bacillus licheniformis X39.
In assay [16] the test system is Enterococcus faecalis 981.
In assay [17] the test system is Escherichia coli ATCC 25922.
For assay [18], the system named is Klebsiella pneumoniae 08040724.
Assay [19] deals with Psychrobacter faecalis X29.
Assay [20] relates to Rhodococcus rhodochrous X15.
The subject of assay [21] is Staphylococcus aureus ATCC 25923.
In assay [22] the test system is Staphylococcus carnosus KHS.
Assay [23] concerns Bacillus subtilis KCCM 11495.
Assay [24] concerns Escherichia coli KCCM 11569.

≈ marks a conversion by molar mass, not a printed value. Where “and” joins values, the source holds several entries; their conditions need not be identical. Equal entries are not always repeated.

Usually MIC stands for the least concentration at which growth counts as inhibited. As for `CC[C@H](C)[C@H](NC(=O)[C@H](Cc1ccccc1)NC(=O)CNC(=O)CNC(=O)CNC(=O)[C@H](Cc1ccccc1)NC(=O)[C@H](Cc1cnc[nH]1)NC(=O)[C@H](CC(C)C)NC(=O)[C@H](Cc1cnc[nH]1)NC(=O)[C@H](Cc1ccccc1)NC(=O)[C@H](Cc1cnc[nH]1)NC(=O)[C@@H](N)Cc1ccccc1)C(=O)N[C@@H](CCCCN)C(=O)N[C@@H](Cc1cnc[nH]1)C(=O)N[C@@H](Cc1ccccc1)C(=O)N[C@H](C(=O)N[C@@H](Cc1cnc[nH]1)C(=O)N[C@@H](CCCN=C(N)N)C(=O)N[C@@H](Cc1ccccc1)C(N)=O)[C@@H](C)CC` [FHFHLHFGGGFIKHFIHRF], the MIC in the assay with Enterococcus faecalis turned out to be 26.2 µM (≈ 62.5 µg/mL); with Escherichia coli W3110, 26.2 µM (≈ 62.5 µg/mL); in assay [1], 26.2 µM (≈ 62.5 µg/mL); in the assay on Staphylococcus aureus, 52.5 µM (≈ 125 µg/mL); in [2] it was 13.4 µM (≈ 32 µg/mL); in assay [3] it was 26.2 µM (≈ 62.5 µg/mL). Besides, the MIC in assay [4] was found to be 26.2 µM (≈ 62.5 µg/mL).

`CC[C@H](C)[C@H](NC(=O)[C@H](CCCCN)NC(=O)[C@H](CCCCN)NC(=O)[C@H](CC(C)C)NC(=O)[C@H](CCCCN)NC(=O)[C@H](CCC(=O)O)NC(=O)[C@H](CCCCN)NC(=O)[C@@H](NC(=O)[C@H](CCCCN)NC(=O)[C@H](CC(N)=O)NC(=O)[C@H](CCCN=C(N)N)NC(=O)[C@H](Cc1ccccc1)NC(=O)[C@H](CCCCN)NC(=O)[C@H](CCCN=C(N)N)NC(=O)[C@H](CC(C)C)NC(=O)[C@H](CCCN=C(N)N)NC(=O)[C@H](CCCCN)NC(=O)[C@H](CCCN=C(N)N)NC(=O)[C@H](CC(C)C)NC(=O)CN)[C@@H](C)CC)C(=O)NCC(=O)O` [GLRKRLRKFRNKIKEKLKKIG]: the MIC was 0.27 µM and 0.34 µM in [5]; 0.69 µM and 0.84 µM in assay [6].

With `CC[C@H](C)[C@H](NC(=O)[C@H](Cc1ccc(O)cc1)NC(=O)[C@@H](NC(=O)[C@@H]1CCCN1C(=O)[C@H](CCCN=C(N)N)NC(=O)[C@H](CC(N)=O)NC(=O)[C@H](CC(N)=O)NC(=O)CN)C(C)C)C(=O)N1CCC[C@H]1C(=O)N[C@@H](CCC(N)=O)C(=O)N1CCC[C@H]1C(=O)N[C@@H](CCCN=C(N)N)C(=O)N1CCC[C@H]1C(=O)N1CCC[C@H]1C(=O)N[C@@H](Cc1cnc[nH]1)C(=O)N1CCC[C@H]1C(=O)N[C@@H](CC(C)C)C(N)=O` [GNNRPVYIPQPRPPHPL], the MIC against Escherichia coli D31 was ≥ 65.6 µM; in assay [7] it was ≥ 32.8 µM; in assay [8], ≥ 32.8 µM.

As for `CC[C@H](C)[C@@H]1NC(=O)[C@H](CCCN=C(N)N)NC(=O)[C@H](CC(C)C)NC(=O)CNC(=O)[C@@H]2CSSC[C@@H]3NC(=O)[C@H](CC(C)C)NC(=O)CNC(=O)[C@H](CC(C)C)NC(=O)[C@H](Cc4ccccc4)NC(=O)[C@H](CCCN=C(N)N)NC(=O)[C@H](CO)NC(=O)[C@@H]4CCCN4C(=O)[C@H](Cc4ccccc4)NC(=O)[C@H](CC(N)=O)NC(=O)[C@H](CSSC[C@@H](C(=O)N[C@@H](CO)C(=O)N[C@@H](CCCN=C(N)N)C(=O)N[C@H](C(=O)N[C@@H](Cc4c[nH]c5ccccc45)C(=O)N[C@H](C(=O)O)C(C)C)C(C)C)NC(=O)[C@H](CSSC[C@H](NC(=O)[C@H](CCC(N)=O)NC(=O)[C@H](C)NC(=O)[C@H](CCC(=O)O)NC(=O)[C@H](CC(N)=O)NC(=O)[C@@H](NC(=O)[C@@H]4CCCN4C(=O)[C@@H](N)CC(C)C)C(C)C)C(=O)N[C@@H](CCCN=C(N)N)C(=O)N[C@@H](CCC(N)=O)C(=O)N[C@@H](C(C)C)C(=O)NCC(=O)NCC(=O)N[C@@H](Cc4ccc(O)cc4)C(=O)N2)NC(=O)[C@@H]2CCCN2C(=O)[C@H](Cc2cnc[nH]2)NC(=O)[C@H](CC(N)=O)NC(=O)[C@H](CCCN=C(N)N)NC(=O)[C@H]([C@@H](C)O)NC3=O)NC1=O` [LPVNEAQCRQVGGYCGLRICNFPSRFLGLCTRNHPCCSRVWV], the results for the minimum inhibitory concentration (MIC) (in the assay with Escherichia coli O157:H7; in assay [9]) were 2.53 µM (≈ 12 µg/mL) and 2.41 µM (≈ 11.5 µg/mL), respectively.

For `CC(=O)N[C@@H](CCCN=C(N)N)C(=O)N[C@@H](Cc1c[nH]c2ccccc12)C(=O)N[C@@H](CCCN=C(N)N)C(=O)N[C@@H](Cc1c[nH]c2ccccc12)C(=O)N[C@@H](CCCN=C(N)N)C(=O)N[C@@H](Cc1c[nH]c2ccccc12)C(N)=O` [RWRWRW], the MIC in assay [10] and in assay [11] was ≥ 45 µM throughout.

Consider `C[C@H](NC(=O)[C@@H](N)CO)C(=O)N1CCC[C@H]1C(=O)N[C@@H](CCCN=C(N)N)C(=O)NCC(=O)N[C@H]1CSSC[C@@H](C(=O)N[C@@H](CCCCN)C(N)=O)NC(=O)[C@@H]2CCCN2C(=O)[C@H](CCCCN)NC(=O)[C@@H]2CCCN2C(=O)[C@@H]2CCCN2C(=O)[C@H](Cc2ccc(O)cc2)NC(=O)[C@H](CO)NC(=O)[C@H](CCCCN)NC(=O)[C@H]([C@@H](C)O)NC(=O)[C@H](Cc2c[nH]c3ccccc23)NC1=O` [SAPRGCWTKSYPPKPCK], for which the MIC was 3 µM (≈ 5.71 µg/mL) with Bacillus megaterium Bm11; 7.4 µM (≈ 14.1 µg/mL) against Candida tropicalis; 7 µM (≈ 13.3 µg/mL) against Mammaliicoccus lentus; 5 µM (≈ 9.52 µg/mL) in the assay on Micrococcus luteus; ≥ 32 µM in assay [12]; ≥ 80 µM in [13]. In assay [14], the MIC worked out at 9 µM (≈ 17.1 µg/mL).

Consider `CC[C@H](C)[C@H](NC(=O)[C@H](CO)NC(=O)[C@H](Cc1ccccc1)NC(=O)[C@H](CC(C)C)NC(=O)[C@@H](N)CO)C(=O)N[C@@H](Cc1ccccc1)C(=O)N[C@@H](CCCCN)C(=O)N[C@H](C(=O)N[C@@H](C)C(=O)N[C@@H](C)C(=O)N[C@@H](CCCCN)C(=O)N[C@@H](Cc1ccccc1)C(=O)N[C@H](C(=O)NCC(=O)N[C@@H](CCCCN)C(=O)N[C@@H](CC(N)=O)C(=O)N[C@@H](CC(C)C)C(=O)N[C@@H](CC(C)C)C(=O)N[C@@H](CCCCN)C(=O)N[C@@H](CCC(N)=O)C(=O)N[C@@H](C)C(=O)NCC(=O)N[C@@H](CCCCN)C(=O)N[C@@H](C)C(=O)NCC(=O)N[C@@H](CC(C)C)C(=O)N[C@@H](CCC(=O)O)C(=O)N[C@H](C(=O)N[C@@H](CC(C)C)C(=O)N[C@@H](C)C(=O)N[C@H]1CSSC[C@@H](C(=O)O)NC(=O)[C@H](CCC(=O)O)NC(=O)[C@H](CC(N)=O)NC(=O)[C@H](CCCCN)NC(=O)[C@H](C)NC(=O)[C@H](CCCCN)NC1=O)[C@@H](C)O)C(C)C)[C@@H](C)O` [SLFSIFKTAAKFVGKNLLKQAGKAGLETLACKAKNEC], for which the MIC in [15] is 9 µM (≈ 35.3 µg/mL); in assay [16] it was 19 µM (≈ 74.6 µg/mL); in [17] it was 75 µM (≈ 295 µg/mL); in assay [18] it was ≥ 150 µM; in [19], 4.5 µM (≈ 17.7 µg/mL); in assay [20], 1.2 µM (≈ 4.71 µg/mL). Moreover, the MIC against Serratia rubidaea X01 was 1.2 µM (≈ 4.71 µg/mL); in assay [21], 9 µM (≈ 35.3 µg/mL); in assay [22], 1.2 µM (≈ 4.71 µg/mL).

Turning to `CC(C)C[C@H](NC(=O)CNC(=O)[C@H](Cc1cnc[nH]1)NC(=O)[C@H](Cc1cnc[nH]1)NC(=O)[C@H](CC(C)C)NC(=O)[C@H](CC(C)C)NC(=O)[C@H](C)NC(=O)[C@H](CC(N)=O)NC(=O)[C@H](CC(C)C)NC(=O)[C@@H](N)Cc1c[nH]c2ccccc12)C(=O)N[C@@H](CC(N)=O)C(=O)N[C@@H](CS)C(=O)N[C@@H](C)C(=O)N[C@@H](CCCCN)C(N)=O` [WLNALLHHGLNCAK], the MIC in [23] and in [24] was ≥ 40.3 µM throughout.

The values above are taken from DBAASP.
